The values that follow are results of earlier work, collected in PMC8198792, “Prediction of Anticancer Peptides with High Efficacy and Low Toxicity by Hybrid Model Based on 3D Structure of Peptides” (International Journal of Molecular Sciences, 2021).

Like-named read-outs stand apart in the source and are kept apart here.

One data set deals with cancer cell lines. Set-up: method as in 6 sources, ref CancerPPD [45] and SATPdb ||| ref CancerPPD/SATPdb ||| ref CancerPPD, SATPdb, Swissprot (PDB) ||| ref CancerPPD/SATPdb/Swissprot(PDB) ||| ref CancerPPD / SATPdb ||| ... The conditions noted are these: cited from earlier work. An excerpt:
Supplement ijms-22-05630-s001.zip/ACPs(seguence).xlsx, sheet "D1" | column: Activity || Supplement ijms-22-05630-s001.zip/ACPs(seguence).xlsx, sheet "D2" | column: Activity || Supplement ijms-22-05630-s001.zip/ACPs(seguence).xlsx, sheet "D3" | column: Activity || (+ 2 further places)

A further data set has as its system erythrocytes. The following applies: cited from earlier work. The source says:
Supplement ijms-22-05630-s001.zip/Hemloytic Peptides(seguence).xlsx, sheet "HD1" | column: Activity || Supplement ijms-22-05630-s001.zip/Hemloytic Peptides(seguence).xlsx, sheet "HD2" | column: Activity || Supplement ijms-22-05630-s001.zip/Hemloytic Peptides(seguence).xlsx, sheet "HD3" | column: Activity

The mark [1] stands for this setting: ACPs dataset D3 (sheet "D3"), label 1 = ACP, 0 = non-ACP, ref CancerPPD/SATPdb.
Where [2] appears, read: ACPs dataset D4 (sheet "D4"), label 1 = ACP, 0 = non-ACP, ref CancerPPD / SATPdb.
The mark [3] stands for this setting: ACPs dataset D5, sheet "D5", label 1 = ACP, 0 = non-ACP, ref CancerPPD [45] and SATPdb.
Where [4] appears, read: ACPs dataset D1, label 1 = ACP, 0 = non-ACP (non-anticancer AMPs from SATPdb), ref CancerPPD/SATPdb.
Setting [5] is: ACPs dataset D4 (sheet "D4"), label 1 = ACP (CancerPPD ID), 0 = non-ACP (non-anticancer AMP, SATPdb ID), ref CancerPPD [45] and SATPdb.
Where [6] appears, read: ACPs dataset D3 (supplement sheet "D3"), 1 = ACP, 0 = non-ACP, ref CancerPPD [45] and SATPdb.
[7] abbreviates: Hemolytic peptides dataset HD2, label 1 = hemolytic, 0 = non-hemolytic, ref Hemolytik/SATPdb.
Where [8] appears, read: hemolytic peptides dataset HD3, 1 = hemolytic (positive set), 0 = non-hemolytic (negative set), labels taken from databases, ref Hemolytik/SATPdb.
The mark [9] stands for this setting: natural hemolytic peptide dataset HD1, label collected from databases, ref Hemolytik [49], SATPdb [34].

For the substance GLGKFLHSAKRFGKAFVGEAMNS [satpdb13009], the Activity in the data set on cancer cell lines (setting [1]) was 0; in the data set on cancer cell lines (setting [2]) it was 0; in the data set with cancer cell lines (setting [3]) it was 0; in the data set on erythrocytes, 1.

With TSRCIFYRRKKCS [satpdb13333], the values for the Activity in the data set with cancer cell lines (setting [4]), with cancer cell lines (setting [2]) and in the data set with erythrocytes were 0, 0 and 1, respectively. Further, the “Activity (dataset HD1, hemolytic 1 / non-hemolytic 0)” value with erythrocytes is 1.

Regarding RWSVYAYVRVRGVLVRYRRSW [satpdb10414], the Activity is reported as 0 in the data set with cancer cell lines (ACPs dataset D1, 1 = ACP (positive), 0 = non-ACP (negative), label taken from databases, ref CancerPPD [45] and SATPdb); 0 with cancer cell lines (setting [5]); 1 in the data set with erythrocytes. Besides, in the data set on erythrocytes, the “Activity (dataset HD1, hemolytic 1 / non-hemolytic 0)” value was 1.

On to “KWKSFLKTFKSAKKKVLHKALKAISS [satpdb10714]”, for which the Activity is 0 with cancer cell lines (setting [6]); 0 in the data set on cancer cell lines (setting [2]); 0 in the data set on cancer cell lines (setting [3]); 1 with erythrocytes (setting [7]); 1 in the data set on erythrocytes (setting [8]).

For “PICKRNGLPVCGETCTLGTCYTQGCTCSW [satpdb10279]”, the Activity with cancer cell lines (setting [4]) is on record as 0; in the data set with cancer cell lines (setting [5]), 0; with erythrocytes (setting [8]), 1. Moreover, in the data set on erythrocytes (setting [9]), the “Activity (dataset HD1, hemolytic 1 / non-hemolytic 0)” value is 1.

Regarding “GWLDVAKKIGKAAFNVAKNFLFNKAVNFAAKGIKKAVDLWG [satpdb12864]”, the Activity in the data set with cancer cell lines (setting [4]) is 0; in the data set with cancer cell lines (setting [2]) it was 0; with erythrocytes (setting [8]), 1. The “Activity (dataset HD1, hemolytic 1 / non-hemolytic 0)” value with erythrocytes (setting [9]) is on record as 1.

VKLKVypLKVKLyP [satpdb10873]: the Activity in the data set on cancer cell lines (setting [6]) is 0; with cancer cell lines (setting [2]), 0; in the data set with cancer cell lines (setting [3]), 0; in the data set with erythrocytes (setting [7]), 1; with erythrocytes (setting [8]), 1.

Regarding KLalKLALKALKAALKLA [satpdb12751], the Activity in the data set on cancer cell lines (setting [1]) is reported as 0; with cancer cell lines (setting [2]), 0; in the data set on cancer cell lines (setting [3]) it was 0; with erythrocytes it was 1.

Turning to ILPFKFPFFPFRR [satpdb11100], the Activity with cancer cell lines (setting [6]) is given as 0; in the data set with cancer cell lines (setting [2]), 0; in the data set on cancer cell lines (setting [3]) it was 0; in the data set with erythrocytes (setting [7]), 1; in the data set on erythrocytes (setting [8]), 1.

With yPVKLyPVKL [satpdb11316], the Activity is 0 with cancer cell lines (setting [6]); 0 in the data set with cancer cell lines (setting [2]); 0 in the data set with cancer cell lines (setting [3]); 1 in the data set on erythrocytes (setting [7]); 1 with erythrocytes (setting [8]).

For FLPILGKLLSGIL [satpdb10106], the Activity in the data set with cancer cell lines (setting [6]) is on record as 0; with cancer cell lines (setting [2]), 0; in the data set with cancer cell lines (setting [3]), 0; in the data set on erythrocytes (setting [7]) it was 1; with erythrocytes (setting [8]) it was 1.

Regarding AKKVFKRLEKLFSKIQNDK [satpdb11343], the Activity in the data set with cancer cell lines (setting [6]), in the data set on cancer cell lines (setting [2]), in the data set on cancer cell lines (setting [3]) and in the data set with erythrocytes was 0 in each case.

As to “RLKELITTGGQKIGEKIRRIGQRIKDFFKNLQPREEKS [satpdb11766]”, the Activity with cancer cell lines (setting [4]) is 0; with cancer cell lines (setting [5]), 0; in the data set with erythrocytes, 1. Further, the “Activity (dataset HD1, hemolytic 1 / non-hemolytic 0)” value in the data set with erythrocytes is recorded as 1.

With GFLSILKKVLGKVMAHMK [satpdb11125], the Activity is given as 0 in the data set with cancer cell lines (setting [6]); 0 in the data set with cancer cell lines (setting [2]); 0 in the data set with cancer cell lines (setting [3]); 1 in the data set with erythrocytes (setting [7]); 1 in the data set with erythrocytes (setting [8]).

GLKEIFKAGLGSLVKGIAAHVAS [satpdb12238]: the Activity in the data set with cancer cell lines (setting [1]) is 0; in the data set on erythrocytes, 1.

VKlKVyPLKVKLyP [satpdb13308]: the Activity in the data set with cancer cell lines (setting [1]) is reported as 0; with cancer cell lines (setting [2]), 0; in the data set with cancer cell lines (setting [3]), 0; with erythrocytes, 1.

FLPILAGLAAKIVPKLFCLATKKC [satpdb11778]: the values for the Activity in the data set with cancer cell lines (setting [4]), in the data set with cancer cell lines (setting [5]) and with erythrocytes were 0, 0 and 1, respectively. Also, the “Activity (dataset HD1, hemolytic 1 / non-hemolytic 0)” value in the data set on erythrocytes is recorded as 1.

Consider RKLRRLKRKIAHKVKKY [satpdb10022], for which the Activity in the data set with cancer cell lines (setting [6]), in the data set with cancer cell lines (setting [2]), in the data set with cancer cell lines (setting [3]) and with erythrocytes was 0 throughout.

Consider “DYDWSLRGPPKCATYGQKCRTWSPPNCCWNLRCKAFRCRPR [satpdb13169]”, for which the Activity in the data set on cancer cell lines (setting [4]) is reported as 0; in the data set with cancer cell lines (setting [2]), 0; in the data set with erythrocytes (setting [8]) it was 1. Further, the “Activity (dataset HD1, hemolytic 1 / non-hemolytic 0)” value in the data set on erythrocytes (setting [9]) is 1.

Turning to “KWKSFLKTFKSAKKTVLHTALKLISS [satpdb12569]”, the Activity with cancer cell lines (setting [1]) is 0; in the data set on cancer cell lines (setting [2]), 0; in the data set on cancer cell lines (setting [3]), 0; in the data set with erythrocytes it was 1.

On to KKKAAAFAAWAAFAKKK [satpdb11969], for which the Activity with cancer cell lines (setting [1]), in the data set on cancer cell lines (setting [2]), in the data set on cancer cell lines (setting [3]) and with erythrocytes was 0 in each case.

Turning to KKKKKKAAAAFWAAAAF [satpdb11398], the Activity in the data set with cancer cell lines (setting [6]), with cancer cell lines (setting [2]), in the data set on cancer cell lines (setting [3]) and in the data set with erythrocytes was 0 in each case.

As for LLLFLLKKRKKRKY [satpdb12213], the Activity is reported as 0 in the data set on cancer cell lines (setting [4]), 0 with cancer cell lines (setting [5]) and 1 with erythrocytes. Also, in the data set with erythrocytes, the “Activity (dataset HD1, hemolytic 1 / non-hemolytic 0)” value was 1.

As to FQWQRNIRKVR [satpdb14534], the Activity in the data set on cancer cell lines (setting [1]), in the data set on cancer cell lines (setting [2]), in the data set on cancer cell lines (setting [3]) and in the data set with erythrocytes was 0 each time.

Turning to FLSTIWNGIKSLL [satpdb12436], the Activity is given as 0 with cancer cell lines (setting [1]); 0 with cancer cell lines (setting [2]); 0 in the data set on cancer cell lines (setting [3]); 1 in the data set on erythrocytes (setting [7]); 1 with erythrocytes (setting [8]).

For the substance WLKKLLKKLLK [satpdb12765], the Activity is reported as 0 in the data set with cancer cell lines (setting [1]), 0 with cancer cell lines (setting [2]), 0 with cancer cell lines (setting [3]) and 1 in the data set on erythrocytes.

LALKSGGWLRLFGLKDKKH [satpdb12814]: the Activity with cancer cell lines (setting [4]) is 0; in the data set with cancer cell lines (setting [2]), 0; with erythrocytes (setting [8]), 1. Moreover, in the data set with erythrocytes (setting [9]), the “Activity (dataset HD1, hemolytic 1 / non-hemolytic 0)” value is listed as 1.

On to “ALWFTMLKKLGTMALHAGKAALGAAANTISQGTQ [satpdb13357]”, for which the Activity in the data set on cancer cell lines (setting [4]) is 0; in the data set with cancer cell lines (setting [2]) it was 0; with erythrocytes, 1. Further, the “Activity (dataset HD1, hemolytic 1 / non-hemolytic 0)” value in the data set on erythrocytes is reported as 1.

For LNWGALLKHLLK [satpdb12233], the Activity in the data set on cancer cell lines (setting [1]) is listed as 0; in the data set with cancer cell lines (setting [2]) it was 0; in the data set with cancer cell lines (setting [3]), 0; in the data set on erythrocytes, 1.

As to RRWPWWPWKWPLI [satpdb10003], the Activity is listed as 0 in the data set on cancer cell lines (setting [6]), 0 in the data set on cancer cell lines (setting [2]), 0 in the data set with cancer cell lines (setting [3]) and 1 with erythrocytes.
